One series concerns the target T1, human topoIIα (Homo sapiens, UniProt P11388).
T1 construct: purchased Inspiralis
Briefly: topoII decatenation assay (Inspiralis). The class given is biochemical. To be noted: human topoIIα decatenation assay; mean ± SD of two independent experiments; read-out: IC50. Here is the method:
We measured the inhibitor activity of our new compounds against human topoIIα, using a topoII decatenation assay (Table 1).
The activity of topoIIα was measured using a decatenation assay (Inspiralis) following the manufacturer’s instructions. Compounds were dissolved in DMSO and used at a concentration ranging from 200 to 1 μM. Final DMSO concentration in the assay was ≤1%. Reaction mixtures were incubated for 30 min at 37 °C and terminated with STEB buffer (40% (w/v) sucrose, 100 mM Tris-HCl, pH 8, 1 mM EDTA, 0.5 mg/mL bromophenol blue). Reaction products were resolved by electrophoresis in 1% agarose gels containing SYBR Safe DNA stain (Invitrogen), scanned, and quantified using the ChemiDoc system (BioRad). IC50 values were obtained with GraphPad Prism software (version 5.03) using the band intensities of the dose–response gels. Values are reported as the mean ± SD of two independent experiments.

Series [1] concerns DU145 cells. Description: cell viability MTT assay, DU145. The class given is cell-based, human. As to conditions: mean ± SD of two experiments, read-out: DU145 antiproliferative activity IC50. The protocol:
(§1) The antiproliferative activity of all compounds was evaluated in (i) DU145, an androgen-independent prostate cancer cell line; (ii) HeLa, a cervical cancer cell line; and (iii) A549, a lung adenocarcinoma cell line (Table 1). […] Undoubtedly, this preliminary cytotoxicity data will need further characterization, also in relation to the in vitro activity of these compounds.
(§2) Human cancer cell lines A549 (lung adenocarcinoma, ATCC CCL-185), DU-145 (androgen-independent prostate cancer, ATCC HTB-81), and HeLa (cervical carcinoma, ATCC CCL-2) were obtained from ATCC. Cells were routinely grown in minimal essential medium containing Eagle’s salts and L-glutamine supplemented with 10% heat-inactivated FBS in a humidified atmosphere of 5% CO2 at 37 °C. To assess the antiproliferative activity of the compounds, cells were seeded at a density of 2500 cells/well (HeLa) or 5000 cells/well (A549, DU-145) in 96-well plates, and cell viability was measured using the MTT assay as described previously.[39] Values are reported as the mean ± SD of two independent experiments.
For orientation: Tetrazolium assays rely on reduction of a dye to a coloured formazan, in cell work by metabolically active cells.

Series [2] deals with HeLa cells. Briefly: cell viability MTT assay, HeLa. Format: cell-based, human. As to conditions: HeLa cervical cancer cells, mean ± SD of two experiments, read-out: HeLa antiproliferative activity IC50. Here is the method:
as §1, §2

Series [3] relates to A549 cells. Briefly: cell viability MTT assay, A549. To be noted: mean ± SD of two experiments, read-out: A549 antiproliferative activity IC50. Format: cell-based, human. Here is the method:
as §1, §2

A short description of series [4]: aqueous kinetic solubility. The class given is physicochemical. To be noted: PBS, pH 7.4, PBS pH 7.4, target 250 µM, 2.5% DMSO, 25°C. Here is the method: 1. In vitro m etabolic stabili ty
In vitro microsomial stability. 10mM DMSO stock solution of test compound was pre-incubated at 37 °C for 15min with mouse liver microsomes added 0.1M Tris-HCl buffer (pH 7.4). The final concentration was 4.6µM. After pre -incubation, the co-factors (NADPH, G6P, G6PDH and MgCl2 pre-dissolved in 0.1M Tris-HCl) were added to the incubation mixture and the incubation was continued at 37 °C for 1h. At each time point (0, 5, 15, 30, 60min), 30µL of incubation mixture was diluted with 200µL cold CH 3CN spiked with 200n M of internal standard, followed by centrifugation at 3500g for 15min. The supernatant was further diluted with H2O (1:1) for analysis. The concentration of test compound was quantified by LC/MS-MS on a Waters ACQUITY UPLC/M S TQD system consisting of a TQD (Triple Quadrupole Detector) Mass Spectrometer equipped with an Electrospray Ionization interface. The analyses were run on an ACQUITY UPLC BEH C18 (50x2.1mmID, particle size 1.7µm) with a VanGuard BEH C18 pre -column (5x2.1mmID, particle size 1.7µm) at 40°C, using 0.1% HCOOH in H 2O (A) and 0.1% HCOOH in CH 3CN (B) as mobile phase. Electrospray ionization (ESI) was app lied in positive mode . The percentage of test compound remaining at each time point relative to t=0 was calculated. The half -lives (t½) were determined by an one-phase decay equation using a non -linear regression of compound concentration versus time.
In vitro Plasma Stability. 10mM DMSO stock solution of test compound was diluted 50 -fold with DMSO-H2O (1:1) and incubated at 37 °C for 2 h with mouse plasma added 5% DMSO (pre-heated at 37 °C for 10 min). The final concentration was 2µM. At each time point (0, 5, 15, 30, 60, 120min), 50 µL of incubation mixture was diluted with 200µL cold CH3CN spiked with 200nM of internal standard, followed by centrifugation at 3500g for 20min. The supernatant was further diluted with H2O (1:1) for analysis. The concentration of test compound was quantified by LC/MS-MS on a Waters ACQUITY UPLC/MS TQD system consisting of a TQD (Triple Quadrupole Detector) Mass Spectrometer equipped with an Electrospray Ionization interface. The analyses were run on an ACQUITY UPLC BEH C18 (50x2.1mmID, particle size 1.7µm) with a VanGuard BEH C18 pre - column (5x2.1mmID, particle size 1.7µm) at 40°C, using 0.1% HCOOH in H2O (A) and 0.1% HCOOH in CH3CN (B) as mobile phase. Electrospray ionization (ESI) was applied in positive mode.
The response factors, calculated on the basis of the internal standard peak area, were plotted over time. When possible, response vs. time profiles were fitted with Prism (GraphPad Software, Inc., USA) to estimate compounds half-life in plasma.
2. Aqueous ki netic solu bili ty
The aqueous kinetic solubility was determined from a 10mM DMSO stock solution of test compound in Phosphate Buffered Saline (PBS) at pH 7.4. The study was performed by incubation of an aliquot of 10mM DMSO stock solution in PBS (pH 7.4) at a target concentration of 250µM resulting in a final concentration of 2.5% DMSO. The incubation was carried out under shaking at 25°C for 24h followed by centrifugation at 21.100g for 30min. The supernatant was analyzed by UPLC/MS for the quantification of dissolved compound by UV at a specific wavelength (215nm).
The analyses were performed on a Waters ACQUITY UPLC/MS SQD system consisting of a SQD (Single Quadrupole Detector) Mass Spectrometer equipped with Electrospray Ionization interface.
The analyses were run on an ACQUITY UPLC BEH C18 column (50x2.1mmID, particle size 1.7µm) with a VanGuard BEH C18 pre-column (5x2.1mmID, particle size 1.7µm), using 10mM NH4OAc in H2O at pH 5 adjusted with AcOH (A) and 10mM NH4OAc in MeCN-H2O (95:5) at pH 5 (B) as […]

Series [5] concerns the target T2, topoII/DNA cleavage complex (Homo sapiens, UniProt P11388).
T2 construct: purchased Inspiralis
Briefly: topoisomerase II cleavage complex assay. Format: biochemical. To be noted: 200 μM compound, 1 U topoII, plasmid DNA. The protocol: Figure 2 Poison activity of the hybrid compounds. Agarose gel electrophoresis of plasmid DNA incubated in the absence (no enzyme) or presence of 1 U of topoII containing either 1% DMSO as control vehicle (no enzyme and topoII lanes) or 200 μM compound. Labels are shown above each lane. Numbers at the bottom correspond to the normalized intensity of the linear form (FIII). Plasmid forms are indicated by the arrow-points on the right: supercoiled (FI), nicked (FII), and linear (FIII).
Poison activity of the compounds was evaluated using a cleavage complex assay (Inspiralis) as described previously.[60] Compounds were tested at a fixed concentration of 200 μM in the presence of 1 U of topoisomerase II and 500 ng of […] plasmid at 37 °C for 6 min. Final DMSO concentration in the assay was 1%. Reaction products were subjected to electrophoresis in a 1% agarose gel, stained with SYBR Safe DNA stain, and DNA bands were visualized and quantified as described above.

The next series has as its system human topoII. The arrangement: method as in PMID 29077404. As to conditions: earlier values of the same authors; read-out: IC50 topoII blocker; cited from earlier work.
In series [6] the test system is DU145 cells. The arrangement: method as in PMID 29077404. To be noted: etoposide and merbarone measured in ref 39, read-out: DU145 antiproliferative activity IC50; cited from earlier work.
The test system of series [7] is HeLa cells. The arrangement: method as in PMID 29077404. To be noted: etoposide and merbarone measured in ref 39, read-out: HeLa antiproliferative activity IC50; cited from earlier work.
The test system of series [8] is A549 cells. The arrangement: method as in PMID 29077404. To be noted: etoposide and merbarone measured in ref 39, read-out: A549 antiproliferative activity IC50; cited from earlier work.
Setting [9] is: Homo sapiens, DU-145, DU145 prostate cancer cells.
[10] abbreviates: Homo sapiens, A549, A549 lung adenocarcinoma cells.

The structures appear in SMILES notation. In brackets after ≈: the same amount, converted by molar mass. Where two headings read alike, the source gives them in different places.

T1 sequence (P11388 whole entry): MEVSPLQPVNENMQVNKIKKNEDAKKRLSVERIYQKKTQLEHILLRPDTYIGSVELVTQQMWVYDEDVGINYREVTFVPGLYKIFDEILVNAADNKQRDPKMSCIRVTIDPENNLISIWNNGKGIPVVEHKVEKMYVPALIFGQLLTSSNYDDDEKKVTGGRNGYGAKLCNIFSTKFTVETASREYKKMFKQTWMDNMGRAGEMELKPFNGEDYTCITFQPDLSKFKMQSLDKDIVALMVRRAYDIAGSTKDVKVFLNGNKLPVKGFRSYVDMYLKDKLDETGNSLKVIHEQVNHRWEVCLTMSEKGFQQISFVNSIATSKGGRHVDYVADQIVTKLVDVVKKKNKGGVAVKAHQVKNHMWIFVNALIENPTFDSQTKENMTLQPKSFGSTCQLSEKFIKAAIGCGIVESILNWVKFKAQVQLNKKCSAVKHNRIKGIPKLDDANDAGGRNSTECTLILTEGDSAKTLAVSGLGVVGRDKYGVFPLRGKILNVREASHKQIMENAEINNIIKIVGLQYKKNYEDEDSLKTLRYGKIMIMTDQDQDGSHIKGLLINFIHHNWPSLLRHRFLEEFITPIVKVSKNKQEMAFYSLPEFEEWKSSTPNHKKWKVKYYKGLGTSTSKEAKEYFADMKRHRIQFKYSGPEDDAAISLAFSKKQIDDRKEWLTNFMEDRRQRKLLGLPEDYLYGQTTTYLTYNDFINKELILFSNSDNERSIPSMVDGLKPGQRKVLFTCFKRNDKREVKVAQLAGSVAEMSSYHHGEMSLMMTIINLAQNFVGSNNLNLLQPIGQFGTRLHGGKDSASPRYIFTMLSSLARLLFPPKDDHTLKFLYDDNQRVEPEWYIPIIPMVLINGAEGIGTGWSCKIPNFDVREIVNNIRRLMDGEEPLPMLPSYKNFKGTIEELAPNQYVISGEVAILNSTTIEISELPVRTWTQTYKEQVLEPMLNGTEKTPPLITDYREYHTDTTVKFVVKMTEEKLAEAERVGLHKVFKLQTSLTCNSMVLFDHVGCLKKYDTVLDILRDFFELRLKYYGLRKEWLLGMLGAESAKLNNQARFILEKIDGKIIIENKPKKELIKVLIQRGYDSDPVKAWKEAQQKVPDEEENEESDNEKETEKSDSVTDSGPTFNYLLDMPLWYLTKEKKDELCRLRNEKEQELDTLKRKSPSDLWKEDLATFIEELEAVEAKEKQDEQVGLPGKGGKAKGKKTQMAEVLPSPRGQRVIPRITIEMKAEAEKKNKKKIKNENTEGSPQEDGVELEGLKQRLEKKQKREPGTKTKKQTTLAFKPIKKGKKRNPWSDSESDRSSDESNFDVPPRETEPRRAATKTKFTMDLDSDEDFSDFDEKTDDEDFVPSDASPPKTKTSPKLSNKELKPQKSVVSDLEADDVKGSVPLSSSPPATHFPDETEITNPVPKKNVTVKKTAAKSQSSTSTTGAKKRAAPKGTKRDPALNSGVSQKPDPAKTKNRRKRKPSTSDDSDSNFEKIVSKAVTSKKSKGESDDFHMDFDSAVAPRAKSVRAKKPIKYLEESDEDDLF
T2 sequence (P11388 whole entry, one chain of several): as the sequence (P11388 whole entry) above

As for `O=C(Nc1cccc(OC(F)F)c1)c1c(O)n(-c2ccccc2)c(=S)n(-c2ccccc2)c1=O` [3g, N-(3-(Difluoromethoxy)phenyl)-6-hydroxy-4-oxo-1,3-diphenyl-2-thioxo-1,2,3,4-tetrahydropyrimidine-5-carboxamide], the IC50 on human topoIIα turned out to be 10.2 ± 1.9 µM; with DU145 cells [1] (setting [9]) it was 6.5 ± 0.9 µM; with HeLa cells [2] (Homo sapiens, HeLa), 6.4 ± 0.5 µM; with A549 cells [3] (setting [10]), 4.8 ± 0.4 µM. This compound displayed a kinetic solubility at 24 h in series [4] of over 200 µM. Besides, the “mode of action in cleavage complex formation assay” value in [5] is on record as “confirmed to be poisons”.
In the case of `CC(F)(F)c1cccc(NC(=O)c2c(O)n(-c3ccccc3)c(=S)n(-c3ccccc3)c2=O)c1` [3h, N-(3-(1,1-Difluoroethyl)phenyl)-6-hydroxy-4-oxo-1,3-diphenyl-2-thioxo-1,2,3,4-tetrahydropyrimidine-5-carboxamide], the IC50 is 9.2 ± 0.2 µM at human topoIIα; 2.7 ± 2.5 µM in the series on DU145 cells [1] (DU145 prostate cancer cells); under 5 µM in the series on DU145 cells [1] (setting [9]); 2.5 ± 0.4 µM with HeLa cells [2]; under 5 µM with HeLa cells [2] (Homo sapiens, HeLa); 3 ± 1.1 µM in the series on A549 cells [3] (A549 lung adenocarcinoma cells). Moreover, the IC50 in the series with A549 cells [3] (setting [10]) was under 5 µM. The compound also had a kinetic solubility at 24 h in series [4] of 6 µM (≈ 2.88 µg/mL).
In the case of `O=C(Nc1cccc(C(F)F)c1)c1c(O)n(-c2ccccc2)c(=S)n(-c2ccccc2)c1=O` [3i, N-(3-(Difluoromethyl)phenyl)-6-hydroxy-4-oxo-1,3-diphenyl-2-thioxo-1,2,3,4-tetrahydropyrimidine-5-carboxamide], the concentration for half-maximal inhibition (IC50) on human topoIIα was 11.4 ± 2.4 µM; with DU145 cells [1] (setting [9]), 7.8 ± 0.2 µM; in the series with HeLa cells [2] (Homo sapiens, HeLa) it was 4.9 ± 1.4 µM; in the series on A549 cells [3] (setting [10]), 4.4 ± 0.2 µM. In series [4], the solubility (kinetic) at 24 h is over 200 µM. Moreover, in series [5], the “mode of action in cleavage complex formation assay” value was “confirmed to be poisons”.
With `COc1cccc(CCNC(=O)c2c(O)n(-c3ccccc3)c(=S)n(-c3ccccc3)c2=O)c1` [5e, 6-Hydroxy-N-(3-methoxyphenethyl)-4-oxo-1,3-diphenyl-2-thioxo-1,2,3,4-tetrahydropyrimidine-5-carboxamide], the IC50 on human topoIIα is 15.8 ± 3.4 µM; with DU145 cells [1] (DU145 prostate cancer cells) it was 3.3 ± 2.5 µM; in the series on DU145 cells [1] (setting [9]), under 5 µM; with HeLa cells [2], 3.4 ± 0.1 µM; in the series on HeLa cells [2] (Homo sapiens, HeLa), under 5 µM; in the series on A549 cells [3] (A549 lung adenocarcinoma cells), 3.2 ± 1.2 µM. Further, in the series with A549 cells [3] (setting [10]), the IC50 is under 5 µM. In series [4], the kinetic solubility at 24 h is 122 µM (≈ 57.8 µg/mL).
For the compound `COc1cccc(NC(=O)c2c(O)n(-c3ccccc3)c(=S)n(-c3ccccc3)c2=O)c1` [ARN16267], the IC50 at human topoIIα is 16.1 ± 2.4 µM; in the series with DU145 cells [1] (setting [9]), 7.6 ± 0.8 µM; in the series on HeLa cells [2] (Homo sapiens, HeLa), 5.5 ± 1.3 µM; in the series on A549 cells [3] (setting [10]) it was 4.7 ± 0.3 µM; with human topoII it was 30 ± 6 µM. In addition, the solubility (kinetic) at 24 h in [4] stood at 236 µM (≈ 105 µg/mL).
As for `COc1cc([C@@H]2c3cc4c(cc3[C@@H](O[C@@H]3O[C@@H]5CO[C@@H](C)O[C@H]5[C@H](O)[C@H]3O)[C@H]3COC(=O)[C@H]23)OCO4)cc(OC)c1O` [etoposide], the IC50 with DU145 cells [6] is 1 ± 0.8 µM; in the series on HeLa cells [7] it was 2.4 ± 0.9 µM; with A549 cells [8], 1.3 ± 0.1 µM; with human topoII, […].
Regarding `O=C1NC(=S)NC(=O)C1C(=O)Nc1ccccc1` [merbarone, 6-hydroxy-4-oxo-N-phenyl-2-thioxo-1H-pyrimidine-5-carboxamide], the IC50 was 26 ± 4.7 µM at human topoIIα, 18.9 ± 2 µM in the series on DU145 cells [6], 62.3 ± 6.4 µM in the series with HeLa cells [7] and 120 ± 12 µM with human topoII.

As a reminder, the IC50 is the point on the concentration scale where inhibition reaches its midpoint. One may read the kinetic solubility as the concentration staying in solution when a stock, usually in DMSO, is diluted into the medium.

The values are drawn from publication PMC7997578, “Design, Synthesis, Dynamic Docking, Biochemical Characterization, and in Vivo Pharmacokinetics Studies of Novel Topoisomerase II Poisons with Promising Antiproliferative Activity” (Journal of Medicinal Chemistry, 2020).
